Target: T1, GPR88 (Homo sapiens, UniProt Q9GZN0)
T1 construct: expressed in transfected cells
Test: Lance Ultra TR-FRET cAMP assay using stable PPLS-HA-GPR88 CHO cells
Format: cell-based
Conditions: for Emax: CHO; for EC50: value in parentheses beside pEC50
Protocol: The compounds of the present disclosure offer potent agonism to the orphan receptor GPR88. As such, the compounds of the present disclosure provide therapeutic potential for the treatment of striatal associated disorders such as Parkinson's disease, schizophrenia, and alcohol addiction. All compounds were evaluated for the GPR88 agonist activity in the inventors' previously established in vitro GPR88 Lance TR-FRET cAMP assay. See, supra, Jin et al., 2018, Rahman et al., 2020, and Rahman et al., 2021. As will be described, the TR-FRET signal was converted to fmol cAMP by interpolating from the standard cAMP curve. Fmol cAMP was plotted against the log of compound concentration and data were fit to a three-parameter logistic curve to generate maximum response (Emax) and EC50 values.
Lance™ Ultra cAMP assay using stable PPLS-HA-GPR88 CHO cells. All cAMP assays were performed using the inventors' previously published methods. […] ACS Chemical Neuroscience 2016, 7, 1418-1432, which is incorporated by reference herein with regard to such teaching. Stimulation buffer containing 1× Hank's Balanced Salt Solution (HBSS), 5 mM HEPES, 0.1% BSA stabilizer, and 0.5 mM final IBMX was prepared and titrated to pH 7.4 at room temperature. Serial dilutions of the test compounds (5 μL) and 300 nM forskolin (5 μL), both prepared at 4× the desired final concentration in 2% DMSO/stimulation buffer, were added to a 96-well white ½ area microplate (PerkinElmer). A cAMP standard curve was prepared at 4× the desired final concentration in stimulation buffer and 5 μL was added to the assay plate. Stable PPLS-HA-GPR88 CHO cells were lifted with versene and spun at 270 g for 10 minutes. The cell pellet was resuspended in stimulation buffer and 4,000 cells (10 μL) were added to each well except wells containing the cAMP standard curve. After incubating for 30 min at room temperature, Eu-cAMP tracer and uLIGHT-anti-cAMPworking solutions were added per the manufacturer's instructions. After incubation at room temperature for 1 hour, the TR-FRET signal (ex 337 nm) was read on a CLARIOstar multimode plate reader (BMG Biotech, Cary, NC).
Data Analysis. The TR-FRET signal (665 nm) was converted to fmol cAMP by interpolating from the standard cAMP curve. Fmol cAMP was plotted against the log of compound concentration and data were fit to a three-parameter logistic curve to generate EC50 values (Prism, version 6.0, GraphPad Software, Inc., San Diego, CA).

T1 sequence (Q9GZN0 whole entry): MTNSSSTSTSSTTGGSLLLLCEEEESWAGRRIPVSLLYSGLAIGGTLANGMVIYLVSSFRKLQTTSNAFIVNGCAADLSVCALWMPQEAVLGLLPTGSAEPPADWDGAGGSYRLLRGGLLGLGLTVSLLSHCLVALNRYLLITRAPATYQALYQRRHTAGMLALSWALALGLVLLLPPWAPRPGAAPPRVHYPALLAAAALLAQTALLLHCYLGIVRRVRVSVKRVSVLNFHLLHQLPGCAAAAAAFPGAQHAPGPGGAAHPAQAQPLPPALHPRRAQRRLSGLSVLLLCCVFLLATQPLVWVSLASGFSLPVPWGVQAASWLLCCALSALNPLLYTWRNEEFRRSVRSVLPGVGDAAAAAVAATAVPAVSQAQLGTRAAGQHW

CCCC(C)COc1ccc([C@@H](CO)C(=O)NCc2ccccc2)cc1 (stereo partly drawn) [Compound 15, (2S)—N-Benzyl-3-hydroxy-2-{4-[(2-methylpentyl)oxy]phenyl}propenamide]
Emax: 99 ± 9%

CCCc1ccc(-c2ccc(N(C[C@@H](N)[C@@H](C)CC)C(=O)N[C@@H](C)c3ccco3)cc2)cc1 [Compound 49, 1-[(2S,3S)-2-Amino-3-methylpentyl]-3-[(1 S)-1-(furan-2-yl)ethyl]-1-{4′-propyl-[1,1′-biphenyl]-4-yl}urea]
Emax: 115 ± 5% | EC50 (stable PPLS-HA-GPR88 CHO cells): 2570 nM

CCCC(C)COc1ccc([C@@H](CO)C(=O)N[C@H](C)c2ccccn2)cc1 (stereo partly drawn) [Compound 21, (2S)-3-Hydroxy-2-{4-[(2-methylpentyl)oxy]phenyl}-N-[(1 R)-1-(pyridin-2-yl)ethyl]propenamide]
Emax: 93 ± 4%

C[C@@H](NC(=O)[C@H](CO)c1ccc(-c2ccc(CC3CC3)cc2)cc1)c1ccccc1 [Compound 33, (2S)-2-[4′-(Cyclopropylmethyl)-[1,1′-biphenyl]-4-yl]-3-hydroxy-N-[(1 R)-1-phenylethyl]propenamide]
Emax: 87 ± 5% | EC50 (stable PPLS-HA-GPR88 CHO cells): 263 nM

CCCc1ccc(-c2ccc([C@@H](Cn3ccnn3)C(=O)N[C@H](C)c3ccccc3)cc2)cc1 [Compound 31, (2S)—N-[(1 R)-1-Phenylethyl]-2-{4′-propyl-[1,1′-biphenyl]-4-yl}-3-(1H-1,2,3-triazol-1-yl)propenamide]
Emax: 96% | EC50 (stable PPLS-HA-GPR88 CHO cells): 631 nM

CCCC(C)COc1ccc([C@@H](CO)C(=O)NC2(c3ccccc3)CC2)cc1 (stereo partly drawn) [Compound 20, (2S)-3-Hydroxy-2-{4-[(2-methylpentyl)oxy]phenyl}-N-(1-phenylcyclopropyl)propenamide]
Emax: 81 ± 8%

CCCC(C)COc1ccc([C@@H](CO)C(=O)N[C@@H]2C[C@H]2c2ccccc2)cc1 (stereo partly shown) [Compound 24]
Emax: 83 ± 5%

CO[C@H](C)[C@H](N)CN(C(=O)N[C@@H](C)c1ccccc1)c1ccc(-c2ccc(C)cc2)cc1 [Compound 55, 3-[(2R,3R)-2-Amino-3-methoxybutyl]-1-[(1 S)-1-phenylethyl]-3-{4′-methyl-[1,1′-biphenyl]-4-yl}urea]
Emax: 114 ± 6% | EC50 (stable PPLS-HA-GPR88 CHO cells): 457 nM

CCCc1ccc(-c2ccc(N(C[C@@H](N)[C@@H](C)CC)C(=O)N[C@@H](C)c3ccccc3)cc2)cc1 [Compound 42, 3-[(2S,3S)-2-Amino-3-methylpentyl]-1-[(1 S)-1-phenylethyl]-3-{4′-propyl-[1,1′-biphenyl]-4-yl}urea]
Emax: 106 ± 10% | EC50 (stable PPLS-HA-GPR88 CHO cells): 1020 nM

CCCC#Cc1ccc([C@@H](CO)C(=O)N[C@H](C)c2ccccc2)cc1 [Compound 36, (2S)-3-Hydroxy-2-[4-(pent-1-yn-1-yl)phenyl]-N-[(1 R)-1-phenylethyl]propenamide]
Emax: 92 ± 7% | EC50 (stable PPLS-HA-GPR88 CHO cells): 204 nM

C[C@@H](NC(=O)[C@H](CO)c1ccc(-c2ccc(C3CCC3)cc2)cc1)c1ccccc1 [Compound 32, (2S)-2-{4′-Cyclobutyl-[1,1′-biphenyl]-4-yl}-3-hydroxy-N-[(1 R)-1-phenylethyl]propenamide]
Emax: 74 ± 7% | EC50 (stable PPLS-HA-GPR88 CHO cells): 355 nM

CCCc1ccc(-c2ccc(CC(=O)N[C@H](C)c3ccccc3)cc2)cc1 [Compound 26, N-[(1 R)-1-Phenylethyl]-2-{4′-propyl-[1,1′-biphenyl]-4-yl}acetamide]
Emax: 95 ± 5% | EC50 (stable PPLS-HA-GPR88 CHO cells): 257 nM

C[C@@H](NC(=O)[C@H](CO)c1ccc(-c2ccc(OC3CCC3)cc2)cc1)c1ccccc1 [Compound 35, (2S)-2-{4′-Cyclobutoxy-[1,1′-biphenyl]-4-yl}-3-hydroxy-N-[(1 R)-1-phenylethyl]propenamide]
Emax: 90 ± 10% | EC50 (stable PPLS-HA-GPR88 CHO cells): 224 nM

CO[C@H](C)[C@H](N)CN(C(=O)N[C@@H](C)c1ccccc1)c1ccc(C#CCC(C)C)cc1 [Compound 60, 3-[(2R,3R)-2-amino-3-methoxybutyl]-3-[4-(4-methylpent-1-yn-1-yl)phenyl]-1-[(1 S)-1-phenylethyl]urea]
Emax: 103 ± 4% | EC50 (stable PPLS-HA-GPR88 CHO cells): 363 nM

CCCc1ccc(-c2ccc(N(C[C@@H](N)CC(C)C)C(=O)N[C@@H](C)c3ccccc3)cc2)cc1 [Compound 50, 3-[(2S)-2-Amino-4-methylpentyl]-1-[(1 S)-1-phenylethyl]-3-{4′-propyl-[1,1′-biphenyl]-4-yl}urea]
Emax: 112 ± 8% | EC50 (stable PPLS-HA-GPR88 CHO cells): 1200 nM

CCCCCCc1ccc(N(C[C@@H](N)[C@@H](C)CC)C(=O)N[C@@H](C)c2ccccc2)cc1 [Compound 43, 3-[(2S,3S)-2-Amino-3-methylpentyl]-3-(4-hexylphenyl)-1-[(1 S)-1-phenylethyl]urea]
Emax: 108 ± 4% | EC50 (stable PPLS-HA-GPR88 CHO cells): 1380 nM

CCCc1ccc(-c2ccc(C(C(=O)NC)C(=O)N[C@H](C)c3ccccc3)cc2)cc1 (mixture of isomers) [Compound 29, N-Methyl-N′-[(1 R)-1-phenylethyl]-2-{4′-propyl-[1,1′-biphenyl]-4-yl}propanediamide]
Emax: 105 ± 2% | EC50 (stable PPLS-HA-GPR88 CHO cells): 1380 nM

COc1ccc(-c2ccc(N(C[C@@H](N)[C@@H](C)OC)C(=O)N[C@@H](C)c3ccccc3)cc2)cc1 [Compound 57, 3-[(2R,3R)-2-Amino-3-methoxybutyl]-1-[(1 S)-1-phenylethyl]-3-{4′-methoxy-[1,1′-biphenyl]-4-yl}urea]
Emax: 101 ± 3% | EC50 (stable PPLS-HA-GPR88 CHO cells): 891 nM

CCCC(C)COc1ccc([C@@H](CO)C(=O)NCCc2ccccc2)cc1 (stereo partly drawn) [Compound 16, (2S)-3-Hydroxy-2-{4-[(2-methylpentyl)oxy]phenyl}-N-(2-phenylethyl)propenamide]
Emax: 97 ± 5%

CCCc1ccc(-c2ccc(N(C[C@@H](N)[C@@H](C)CC)C(=O)N[C@H](C)c3ccccc3)cc2)cc1 [Compound 41, 3-[(2S,3S)-2-Amino-3-methylpentyl]-1-[(1 R)-1-phenylethyl]-3-{4′-propyl-[1,1′-biphenyl]-4-yl}urea]
cAMP pEC50 (stable PPLS-HA-GPR88 CHO cells, 300 nM forskolin, mean ± standard error of at least three independent experiments in duplicate): Inactive

CCCC(C)COc1ccc([C@@H](CO)C(=O)N[C@H](C)c2ccco2)cc1 (stereo partly drawn) [Compound 22, (2S)—N-[(1 R)-1-(Furan-2-yl)ethyl]-3-hydroxy-2-{4-[(2-methylpentyl)oxy]phenyl}propenamide]
Emax: 108 ± 6%

CCCc1ccc(-c2ccc([C@@H](Cn3cncn3)C(=O)N[C@H](C)c3ccccc3)cc2)cc1 [Compound 30]
Emax: 96 ± 3% | EC50 (stable PPLS-HA-GPR88 CHO cells): 1100 nM

CCCc1ccc(-c2ccc(N(C[C@H](C)N)C(=O)N[C@@H](C)c3ccccc3)cc2)cc1 [Compound 52, 3-[(2S)-2-Aminopropyl]-1-[(1 S)-1-phenylethyl]-3-{4′-propyl-[1,1′-biphenyl]-4-yl}urea]
Emax: 107 ± 3% | EC50 (stable PPLS-HA-GPR88 CHO cells): 1290 nM

CCc1ccc(-c2ccc(N(C[C@@H](N)[C@@H](C)OC)C(=O)N[C@@H](C)c3ccccc3)cc2)cc1 [Compound 56, 3-[(2R,3R)-2-Amino-3-methoxybutyl]-1-[(1 S)-1-phenylethyl]-3-{4′-ethyl-[1,1′-biphenyl]-4-yl}urea]
Emax: 116 ± 9% | EC50 (stable PPLS-HA-GPR88 CHO cells): 331 nM

CCCC(C)COc1ccc([C@H](CO)C(=O)N[C@H](C)c2ccccc2)cc1 (stereo partly drawn) [Compound 3, (2R)-3-Hydroxy-2-{4-[(2-methylpentyl)oxy]phenyl}-N-[(1 R)-1-phenylethyl]propanamide]
Emax: 77 ± 4%

CCCC(C)COc1ccc([C@@H](CO)C(=O)N[C@H](C)c2cccc(C)c2)cc1 (stereo partly drawn) [Compound 10, (2S)-3-Hydroxy-2-{4-[(2-methylpentyl)oxy]phenyl}-N-[(1 R)-1-(3-methylphenyl)ethyl]propenamide]
Emax: 100 ± 3%

From patent publication US20250145561A1, “4-SUBSTITUTED-PHENYL ACETAMIDES AND ARYLUREAS AS AGONISTS FOR THE ORPHAN RECEPTOR GPR88” (RESEARCH TRIANGLE INSTITUTE, priority 2022, published 2025)
